Test results reported in US20050245465A1, “Compounds for treating Alzheimer's disease and for inhibiting beta-amyloid peptitde production” (priority 2004, published 2005).
Entries after “also recorded” stand apart in the source; their conditions may differ.

Legend:
[1] = test system: CHO cells expressing human APP; experiment: Secreted Aβ40/Aβ42 ELISA in medium of CHO-APP cells; format: cell-based, Chinese hamster; set-up: key to Aβ42-lowering activity: Aβ42-lowering activity (“Yes”); no profound effects (“No”); non-determined (“ND”); Ginsenosides that affected cell viability are indicated as “Cytotoxic.”; details: for Aβ42-lowering activity: Tables 1-3; for inhibitory effects on Aβ40 and Aβ42 production: 8 hours of incubation, ginsenosides from white ginseng
Description: The CHO cells were treated with the indicated compounds (at 50 μg/ml) for 8 hrs. Aβ42 levels in the medium were measured by ELISA and normalized to intracellular full-length APP.
The potential effects of ginsenosides and their analogues in treating AD were examined. First, a number of ginsenosides were screened based on their effects on Aβ generation. The effects of various ginsenosides on Aβ (e.g., Aβ40 and Aβ42) production was initially accessed by incubating the Chinese hamster ovary (CHO) cells expressing human APP(CHO-APP cells) with each ginsenoside purified from unprocessed ginseng (known as “white ginseng”). These representative ginsenosides included Rb1, Rb2, Rc, Rd, Re, Re, Rg1 and Rg2 and differ in their side chains and sugar moieties.
After 8 hours of incubation, the media were collected and the levels of secreted Aβ40 and Aβ42 were determined by ELISA.
Steaming ginseng at high temperature gave rise to additional ginsenosides with enhanced pharmacological activity, including (20S)Rg3, Rk1 and Rg5 (22-25). Next, the effects of these heat-processing derived ginsenosides (e.g., (20S)Rg3, Rh1, Rh2, Rk1, Rg6, Rg5) on Aβ40 and Aβ42 generation were tested. […] In contrast, Aβ42 levels were not affected by (20R)Rg3, Rh1, and Rg6. Aβ40 levels were not changed by treatment with any of the ginsenosides tested. The potency of Aβ42-lowering activity was highest with Rk1 and (20S)Rg3. […] The secretion of Aβ40 was affected by treatment with Rk1 only at very high concentration (˜100 μM) and cell viability was not affected by treatment of Rk1 under these conditions (up to 100 μM, 8 hour treatment; data not shown). […] Overnight treatment with Rgk351, Rk1, and Rg5 also reduce Aβ42 production in CHO-APP cells (FIG. 12B). […] These studies provide a structure-activity relationship between the chemical structures of ginsenosides and Aβ42-lowering activity, further providing the basis for designing additional Aβ42-lowering analogues as well as for defining a class of compounds that harbor Aβ42-lowering activity.

[2] = test system: Neuro2a cells expressing the human Swedish mutant form of APP; experiment: Aβ generation in Neuro2a-SW cells; format: cell-based, mouse; details: for levels of Aβ42 / production of Aβ42: Neuro2a-SW, also CHO cells expressing wild-type human APP
Source text: FIG. 16 depicts the effects of two major metabolites of ginsenosides, including 20(S)-protopanaxatriol (PPT) and 20(S)-protopanaxadiol (PPD) on Aβ42 generation. 20(S)-panaxatriol (PT) and 20(S)-panaxadiol (PD) are the artificial derivatives of PPT and PPPD, respectively.
Ginsenosides are metabolized by human intestinal bacteria after oral administration of ginseng extract (Kobayashi K., et al., Metabolism of ginsenoside by human intestinal bacteria [II] Ginseng Review 1994; 18: 10-14; Hasegawa H., et al., Main ginseng saponin metabolites formed by intestinal bacteria. Planta Med. 1996; 62: 453-457.). Therefore, the effects of two major metabolites of ginsenosides, including 20(S)-protopanaxatriol (PPT) and 20(S)-protopanaxadiol (PPD) on Aβ42 generation were tested. 20(S)-panaxatriol (PT) and 20(S)-panaxadiol (PD) are the artificial derivatives of PPT and PPPD, respectively.

[3] = test system: CHO-APP/PS1 cells; experiment: Secreted Aβ40/Aβ42 ELISA in CHO-APP/PS1 cells; format: cell-based, Chinese hamster; details: 50 μM, 8 hrs
Description: FIG. 10 depicts the effects of native ginsenosides on Aβ42 production. CHO cells stably transfected with human APP695 together with either wild-type (A, CHO-APP/PS1 cells) or ΔE9 FAD mutant (B, CHO-APP/ΔE9PS1 cells) forms of PS1 were used. Cells were treated with the indicated compounds (at 50 μM) for 8 hrs. Levels of secreted Aβ40 and Aβ42 in the medium were determined by ELISA and normalized to intracellular full-length APP. In CHO-APP/PS1 cells, average Aβ amounts in control samples were 320 pM for Aβ40 and 79 pM for Aβ42. The relative levels of Aβ and Aβ42 were normalized to values obtained from non-treated and vehicle-treated cells and are shown as % to control+s.d.). One of three representative experiments are shown.
CHO-APP/PS1 (A) and CHO-APP/ΔE9PS1 (B) cells were treated with the indicated compounds at 50 μM for 8 hrs and the levels of secreted Aβ40 and Aβ42 were determined as described in FIG. 1. […] The PS1-ΔE9 FAD mutation diminished the Aβ42 response to Rk1 treatment (B).

[4] = test system: γ-secretase; experiment: Cell-free generation of intracellular domains (AICD, NICD, p75-ICD) in membrane fractions of 293 cells; format: biochemical; details: membrane fractions from 293 cells overexpressing APP, Notch-ΔE or p75-ΔE
Description: Membrane fractions isolated from 293 cells overexpressing either APP (A), Notch-ΔE (B) or p75-ΔE (C) and incubated in the presence of indicated compounds: Compound E (CpdE, general γ-secretase inhibitor), Rgk351, Rk1 and sulindac sulfide (SS).
Since the effect of Rk1 was rather selective to Aβ42 (but not Aβ40) in a cell-based assay, the question of whether Rk1 affects other γ-secretase-mediated cleavage events, including the generation of AICD resulted from a transmembrane cleavage of APP distal from either Aβ40 or Aβ42 site, and γ-secretase-mediated intramembrane cleavage of Notch1 or p75 neurotrophin receptor (p75NTR) to yield Notch1 or p75NTR intracellular domains (NICD or p75-ICD, respectively) was tested. The cell-free generation of AICD, NICD and p75-ICD was not affected by incubation with Rgk351 or Rk1 (FIG. 5).

[5] = test system: γ-secretase; experiment: Cell-free γ-secretase assay (CHAPSO-solubilized membrane fractions, Aβ ELISA); format: biochemical; details: cell-free γ-secretase assay, partially purified γ-secretase complex; 100 μM
Description: (A) CHAPSO-solubilized membrane fractions were incubated with recombinant γ-secretase substrates together with the indicated compounds (at 100 μM) and the levels of Aβ42 and Aβ40 were determined by ELISA as described (27-29). (B) Dose-response of Aβ40 and Aβ42-lowering activity of Rk1 and (20S)Rg3 in a cell-free γ-secretase assay.
Next, the inhibitory effects of Rk1 and (20S)Rg3 on Aβ generation in an in vitro γ-secretase assay was studied. […] In contrast, naproxen, an NSAID without Aβ42-lowering activity, had no effects on Aβ42 production (FIG. 15A).

CC(C)=CCCC(C)(O)[C@H]1CC[C@]2(C)[C@@H]1[C@H](O)C[C@@H]1[C@@]3(C)CC[C@H](O)C(C)(C)[C@@H]3CC[C@]12C (stereo in doubt) [PPD, Protopanaxadiol]
Aβ42-lowering activity [1]: No | inhibitory effects on Aβ40 or Aβ42 generation [2]: did not confer any inhibitory effects

CC(C)=CCC[C@@](C)(O)[C@H]1CC[C@]2(C)[C@@H]1[C@H](O)C[C@@H]1[C@@]3(C)CC[C@H](O[C@@H]4O[C@H](CO)[C@@H](O)[C@H](O)[C@H]4O[C@@H]4O[C@H](CO)[C@@H](O)[C@H](O)[C@H]4O)C(C)(C)[C@@H]3CC[C@]12C [(20R)Rg3]
generation of Aβ42 (Aβ42 levels in the medium, ELISA, normalized to intracellular full-length APP) ([1]; CHO cells stably transfected with human APP695, 50 μg/ml, 8 hrs): reduce | Aβ42-lowering activity [1]: Yes | secretion of Aβ42 (initial screening) ([1]; heat-processing derived ginsenosides): not affected | potency of Aβ42-reducing activity (order) [3]: Rk1>/=(20S)Rg3>Rg5>(20R)Rg3

C[C@H](NC(=O)Cc1cc(F)cc(F)c1)C(=O)N[C@H]1N=C(c2ccccc2)c2ccccc2N(C)C1=O [Compound E]
cell-free generation of AICD, NICD and p75-ICD [4]: Very low amounts; also recorded: efficiently inhibited

CC1(C)CCC[C@](C)([C@H]2CC[C@]3(C)[C@@H]2[C@H](O)C[C@@H]2[C@@]4(C)CC[C@H](O)C(C)(C)[C@@H]4CC[C@]23C)O1 [PD, 20(S)-panaxadiol]
inhibitory effects on Aβ40 or Aβ42 generation [2]: did not confer any inhibitory effects

CC(C)=CCC[C@](C)(O)[C@H]1CC[C@]2(C)[C@@H]1[C@H](O)C[C@@H]1[C@@]3(C)CC[C@H](O)C(C)(C)[C@@H]3[C@@H](O)C[C@]12C [PPT, Protopanaxatiol]
Aβ42-lowering activity [1]: Yes | levels of Aβ42 [2]: without affecting | production of Aβ42 [2]: reduced

CC1(C)CCC[C@](C)([C@H]2CC[C@]3(C)[C@@H]2[C@H](O)C[C@@H]2[C@@]4(C)CC[C@H](O)C(C)(C)[C@@H]4[C@@H](O)C[C@]23C)O1 [PT, 20(S)-panaxatriol]
levels of Aβ42 [2]: without affecting | production of Aβ42 [2]: reduced

CC(C)=CCC[C@](C)(O[C@@H]1O[C@H](CO[C@@H]2O[C@H](CO)[C@@H](O)[C@H](O)[C@H]2O)[C@@H](O)[C@H](O)[C@H]1O)[C@H]1CC[C@]2(C)[C@@H]1[C@H](O)C[C@@H]1[C@@]3(C)CC[C@H](O[C@@H]4O[C@H](CO)[C@@H](O)[C@H](O)[C@H]4O[C@@H]4O[C@H](CO)[C@@H](O)[C@H](O)[C@H]4O)C(C)(C)[C@@H]3CC[C@]12C [Rb1]
inhibitory effects on Aβ40 and Aβ42 production [1]: None | Aβ42-lowering activity [1]: No

CC(C)=CCC[C@](C)(O[C@@H]1O[C@H](CO[C@@H]2OC[C@H](O)[C@H](O)[C@H]2O)[C@@H](O)[C@H](O)[C@H]1O)[C@H]1CC[C@]2(C)[C@@H]1[C@H](O)C[C@@H]1[C@@]3(C)CC[C@H](O[C@@H]4O[C@H](CO)[C@@H](O)[C@H](O)[C@H]4O[C@@H]4O[C@H](CO)[C@@H](O)[C@H](O)[C@H]4O)C(C)(C)[C@@H]3CC[C@]12C [Rb2]
inhibitory effects on Aβ40 and Aβ42 production [1]: None | Aβ42-lowering activity [1]: No

CC(C)=CCC[C@](C)(O[C@@H]1O[C@H](CO[C@@H]2OC[C@@H](O)[C@H](O)[C@H]2O)[C@@H](O)[C@H](O)[C@H]1O)[C@H]1CC[C@]2(C)[C@@H]1[C@H](O)C[C@@H]1[C@@]3(C)CC[C@H](O[C@@H]4O[C@H](CO)[C@@H](O)[C@H](O)[C@H]4O[C@@H]4O[C@H](CO)[C@@H](O)[C@H](O)[C@H]4O)C(C)(C)[C@@H]3CC[C@]12C [Rb3]
Aβ42-lowering activity [1]: No

CC(C)=CCC[C@](C)(O[C@@H]1O[C@H](CO)[C@@H](O)[C@H](O)[C@H]1O)[C@H]1CC[C@]2(C)[C@@H]1[C@H](O)C[C@@H]1[C@@]3(C)CC[C@H](O)C(C)(C)[C@@H]3[C@@H](O[C@@H]3O[C@H](CO)[C@@H](O)[C@H](O)[C@H]3O)C[C@]12C [Rg1]
inhibitory effects on Aβ40 and Aβ42 production [1]: None | Aβ42-lowering activity [1]: No | production of Aβ42 in cells (summary statement) ([1]; mammalian cells, in vitro): no amyloid reducing activity in vitro

C=C(CCC=C(C)C)[C@H]1CC[C@]2(C)[C@@H]1[C@H](O)C[C@@H]1[C@@]3(C)CC[C@H](O)C(C)(C)[C@@H]3[C@@H](O[C@@H]3O[C@H](CO)[C@@H](O)[C@H](O)[C@H]3O)C[C@]12C [Rk3]
Aβ42-lowering activity [1]: No

COc1ccc2cc([C@H](C)C(=O)O)ccc2c1 [naproxen, reference compound]
Aβ42 generation in vitro [5]: no effects

CSc1ccc(/C=C2/C(C)=C(CC(=O)O)c3cc(F)ccc32)cc1 [sulindac sulfide, reference compound]
Aβ40 production ([1]; overnight treatment, CHO-APP cells): slightly affected | cell-free generation of AICD, NICD and p75-ICD [4]: abundantly produced | cell-free generation of AICD, NICD and p75-ICD ([4]; listed as sulinac sulfide): did not affect | Aβ42 generation in vitro [5]: potently inhibited
